# Laboratory results as given in US11279681B2, “3-alkyl bicyclic [4,5,0] hydroxamic acids as HDAC inhibitors” (Valo Health, Inc., priority 2015, dated 2022).
# Target: T1, HDAC6 (Homo sapiens, UniProt Q9UBN7)
# T1 sequence (Q9UBN7 1-1215): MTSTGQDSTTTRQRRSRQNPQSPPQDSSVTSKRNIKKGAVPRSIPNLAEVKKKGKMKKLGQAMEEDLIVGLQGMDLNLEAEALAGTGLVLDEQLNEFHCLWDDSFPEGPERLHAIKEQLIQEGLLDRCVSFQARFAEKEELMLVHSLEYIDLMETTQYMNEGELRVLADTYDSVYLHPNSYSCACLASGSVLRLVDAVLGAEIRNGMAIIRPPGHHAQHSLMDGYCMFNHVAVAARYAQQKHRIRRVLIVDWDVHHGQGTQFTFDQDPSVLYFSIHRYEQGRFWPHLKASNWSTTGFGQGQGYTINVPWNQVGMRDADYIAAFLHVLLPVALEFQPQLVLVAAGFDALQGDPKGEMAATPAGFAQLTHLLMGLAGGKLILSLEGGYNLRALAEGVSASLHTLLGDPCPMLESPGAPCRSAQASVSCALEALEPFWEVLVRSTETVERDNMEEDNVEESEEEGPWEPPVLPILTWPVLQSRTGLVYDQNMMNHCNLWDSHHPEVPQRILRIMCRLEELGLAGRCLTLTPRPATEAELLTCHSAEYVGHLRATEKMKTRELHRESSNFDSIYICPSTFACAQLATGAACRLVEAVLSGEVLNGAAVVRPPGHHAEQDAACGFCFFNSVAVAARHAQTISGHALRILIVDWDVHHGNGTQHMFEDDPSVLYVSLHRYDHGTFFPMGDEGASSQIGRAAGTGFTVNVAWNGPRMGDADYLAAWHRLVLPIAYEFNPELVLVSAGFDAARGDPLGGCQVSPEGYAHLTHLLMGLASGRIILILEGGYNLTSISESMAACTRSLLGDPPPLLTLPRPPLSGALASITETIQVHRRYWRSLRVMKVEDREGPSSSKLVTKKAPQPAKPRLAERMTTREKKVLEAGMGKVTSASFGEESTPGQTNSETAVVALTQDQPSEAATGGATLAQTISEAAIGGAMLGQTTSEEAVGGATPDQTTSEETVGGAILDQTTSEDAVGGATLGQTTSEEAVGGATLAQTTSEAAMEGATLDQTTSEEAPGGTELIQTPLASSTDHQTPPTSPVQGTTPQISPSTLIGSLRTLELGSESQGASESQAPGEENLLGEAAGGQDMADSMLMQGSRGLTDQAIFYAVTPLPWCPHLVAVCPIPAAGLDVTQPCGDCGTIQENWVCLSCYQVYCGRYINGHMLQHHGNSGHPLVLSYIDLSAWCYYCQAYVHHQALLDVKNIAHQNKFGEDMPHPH
# Assay: In vitro histone deacetylase assay: enzymatic HDAC6 electrophoretic mobility shift assay
# Type: biochemical
# Conditions: full length human recombinant HDAC6, 1 nM enzyme, 2 μM peptide substrate RHKK(Ac)-NH2, 25° C.; read-out: Inhibitory Concentration (IC50) Values for Representative Compounds against HDAC6, Activity Range
# Procedure: The enzymatic HDAC6 assay was performed using electrophoretic mobility shift assay. […] The enzymatic reactions were assembled in 384 well plates in a total volume of 25 μL in a reaction buffer composing: 100 mM HEPES, pH7.5, 25 mM KCl, 0.1% bovine serum albumin, 0.01% Triton X-100, 1% DMSO (from compounds) 2 μM of the fluorescently labeled peptide substrate and enzyme. The enzyme was added at a final concentration of 1 nM. The peptide substrate RHKK(Ac)-NH2 was used. The compounds were tested at 12 concentrations spaced by 3× dilution intervals. Negative control samples (0%-inhibition in the absence of inhibitor) and positive control samples (100%-inhibition) were assembled in replicates of four in each assay plate. The reactions were incubated at 25° C. and quenched by the addition of 45 μL of termination buffer (100 mM HEPES, pH 7.5, 0.01% Triton X-100, 0.05% SDS).
# The terminated assay plates were analyzed on LabChip® 3000 microfluidic electrophoresis instrument (Perkin Elmer/Caliper Life Sciences). The fluorescence intensity of the electrophoretically separated de-acetylated product and substrate peptide was measured. Activity in each sample was determined as the product to sum ratio (PSR): P/(S+P), where P is the peak height of the product peptide and S is the peak height of the substrate peptide. Percent inhibition (Pinh) is determined using the following equation:
# Pinh=(PSR0%−PSRinh)/(PSR0%−PSR100%)*100, where PSRinh is the product sum ratio in the presence of inhibitor, PSR0% is the average product sum ration in the absence of inhibitor and PSR100% is the average product sum ratio in 100%-inhibition control samples. The IC50 values of inhibitors were determined by fitting the %-inhibition curves with 4 parameter dose-response model using XLfit 4 software.
row,Structure (SMILES),IC50 [nM]
1,O=C(NO)c1ccc2c(c1)OCCN(Cc1ccccc1)S2(=O)=O,> 500
2,O=C(NO)c1ccc2c(c1)CN(Cc1nc3ccccc3[nH]1)CCO2,> 500
3,CC(=O)N1CCCC(CN2CC(=O)Nc3ccc(C(=O)NO)cc3C2)C1 (centres unmarked),> 500
4,CN(C)Cc1cccc(CN2CC(=O)Nc3ccc(C(=O)NO)cc3C2)c1,> 500
5,O=C1CN(Cc2nccs2)Cc2cc(C(=O)NO)ccc2N1,> 500
6,O=C1CN(CC2CCOC2)Cc2cc(C(=O)NO)ccc2N1 (centres unmarked),> 500
7,O=C1CN(Cc2ccccn2)Cc2cc(C(=O)NO)ccc2N1,> 500
8,O=C1CN(Cc2cncnc2)Cc2cc(C(=O)NO)ccc2N1,> 500
9,COc1ccc(CCN2CC(=O)Nc3ccc(C(=O)NO)cc3C2)cc1,100 to 500
10,COc1ccc(CCN2CCOc3ccc(C(=O)NO)cc3C2)cc1,> 500
11,COc1ccc(CCN2CCOc3cc(C(=O)NO)ccc3C2)cc1,100 to 500
12,COc1ccc(CCN2CCOc3cc(C(=O)NO)ccc3C2=O)cc1,100 to 500
13,COc1ccc(S(=O)(=O)N2CC(=O)Nc3ccc(C(=O)NO)cc3C2)cc1,> 500
14,COc1ccc(S(=O)(=O)N2CCOc3cc(C(=O)NO)cnc3C2)cc1,100 to 500
15,COc1ccc(S(=O)(=O)N2CCOc3nc(C(=O)NO)ccc3C2)cc1,> 500
16,COc1ccc(S(=O)(=O)N2CCOc3ccc(C(=O)NO)cc3C2)cc1,100 to 500
17,COc1ccc(S(=O)(=O)N2CCOc3cc(C(=O)NO)ccc3C2)cc1,100 to 500
18,COc1ccc(CN2CC(=O)N(C)c3ccc(C(=O)NO)cc3C2)cc1,> 500
19,COCCn1c(CN2CCOc3cc(C(=O)NO)ccc3C2)nc2ccccc21,100 to 500

row,Structure (SMILES),IC50 [nM]
1,COCCn1c(CN2CCOc3ccc(C(=O)NO)cc3C2)nc2ccccc21,> 500
2,Cn1ccnc1CN1CC(=O)Nc2ccc(C(=O)NO)cc2C1,100 to 500
3,COc1ccc(CN2CCN(C)c3ccc(C(=O)NO)cc3C2)cc1,> 500
4,COc1ccc(CN2CC(=O)Nc3ccc(C(=O)NO)cc3C2)cc1,100 to 500
5,COc1ccc(CN2CCOc3cc(C(=O)NO)cnc3C2)cc1,100 to 500
6,COc1ccc(CN2CCOc3nc(C(=O)NO)ccc3C2)cc1,> 500
7,COc1ccc(CN2CCOc3ccc(C(=O)NO)cc3C2)cc1,> 500
8,COc1ccc(CN2CCOc3cc(C(=O)NO)ccc3C2)cc1,100 to 500
9,COc1ccc(CN2CCNc3ccc(C(=O)NO)cc3C2)cc1,> 500
10,COc1ccc(CN2CCOc3ccc(C(=O)NO)cc3C2=O)cc1,> 500
11,COc1ccc(CN2CCOc3cc(C(=O)NO)ccc3C2=O)cc1,100 to 500
12,COc1ccc(NC(=O)N2CCOc3ccc(C(=O)NO)cc3C2)cc1,> 500
13,COc1ccc(NC(=O)N2CCOc3cc(C(=O)NO)ccc3C2)cc1,100 to 500
14,C[C@@H]1COc2cc(C(=O)NO)ccc2CN1c1ccccc1,100 to 500
15,COc1ccc(S(=O)(=O)N2Cc3ccc(C(=O)NO)cc3OC[C@H]2C)cc1,> 500
16,COc1ccc(NC(=O)N2Cc3ccc(C(=O)NO)cc3OC[C@H]2C)cc1,100 to 500
17,COc1ccc(S(=O)(=O)N2Cc3ccc(C(=O)NO)cc3OC[C@@H]2C)cc1,100 to 500
18,COc1ccc(CN2CCOc3ccc(C(=O)NO)cc3C2C)cc1 (centres unmarked),> 500

# Next, values leading:
row,IC50 [nM],Structure (SMILES)
1,100 to 500,O=C(NO)c1ccc2c(c1)S(=O)(=O)N(Cc1ccccc1)CCO2
2,≤ 100,O=C(NO)c1ccc2c(c1)OCCN(c1nc3ccccc3[nH]1)C2
3,100 to 500,O=C(NO)c1ccc2c(c1)CN(c1nc3ccccc3[nH]1)CCO2
4,≤ 100,O=C1CN(Cc2nc3ccccc3[nH]2)Cc2cc(C(=O)NO)ccc2N1
5,100 to 500,O=C1CN(Cc2nc3ccccc3[nH]2)Cc2ccc(C(=O)NO)cc2N1
6,≤ 100,O=C(NO)c1ccc2c(c1)OCCN(Cc1nc3ccccc3[nH]1)C2
7,100 to 500,O=C(NO)c1ccc2c(c1)OCCN(c1nc3ccccc3s1)C2
8,100 to 500,O=C(NO)c1ccc2c(c1)OCCN(c1ccc(Cl)c(Cl)c1)C2
9,100 to 500,N#Cc1ccc(N2CCOc3cc(C(=O)NO)ccc3C2)cc1C(F)(F)F
10,≤ 100,O=C1CN(Cc2coc(-c3cccc(F)c3)n2)Cc2cc(C(=O)NO)ccc2N1
11,100 to 500,O=C1CN(Cc2ccccc2Cl)Cc2cc(C(=O)NO)ccc2N1
12,≤ 100,COc1ccc(CN2CC(=O)Nc3ccc(C(=O)NO)cc3C2)c(F)c1
13,≤ 100,O=C1CN(Cc2cccc3c2OC(F)(F)O3)Cc2cc(C(=O)NO)ccc2N1
14,100 to 500,O=C1CN(Cc2cc(F)ccc2F)Cc2cc(C(=O)NO)ccc2N1
15,100 to 500,O=C1CN(Cc2cccc(Cl)c2)Cc2cc(C(=O)NO)ccc2N1
16,≤ 100,O=C1CN(Cc2cc(Cl)cc(Cl)c2)Cc2cc(C(=O)NO)ccc2N1
17,100 to 500,O=C1CN(Cc2cc(F)cc(F)c2)Cc2cc(C(=O)NO)ccc2N1
18,≤ 100,O=C1CN(Cc2ccc(Cl)cc2)Cc2cc(C(=O)NO)ccc2N1
19,100 to 500,N#Cc1ccc(CN2CC(=O)Nc3ccc(C(=O)NO)cc3C2)cc1
20,100 to 500,O=C(NO)c1ccc2c(c1)OCCN(CC1CCCCC1)C2
21,100 to 500,O=C1CN(CC2CC2)Cc2cc(C(=O)NO)ccc2N1
22,≤ 100,CC(c1ccccc1)N1CC(=O)Nc2ccc(C(=O)NO)cc2C1 (centres unmarked)

row,IC50 [nM],Structure (SMILES)
1,≤ 100,O=C1CN(Cc2ccccc2OC(F)(F)F)Cc2cc(C(=O)NO)ccc2N1
2,100 to 500,O=C1CN(Cc2cccc(OC(F)(F)F)c2)Cc2cc(C(=O)NO)ccc2N1
3,100 to 500,O=C1CN(Cc2cccc(Oc3ccccc3)c2)Cc2cc(C(=O)NO)ccc2N1
4,≤ 100,O=C1CN(Cc2ccc(-n3cccn3)cc2)Cc2cc(C(=O)NO)ccc2N1
5,≤ 100,CC(C)c1ccc(CN2CC(=O)Nc3ccc(C(=O)NO)cc3C2)cc1
6,≤ 100,CC(C)Oc1ccc(CN2CC(=O)Nc3ccc(C(=O)NO)cc3C2)cc1
7,≤ 100,O=C1CN(Cc2ccc(-c3ccccn3)cc2)Cc2cc(C(=O)NO)ccc2N1
8,100 to 500,O=C1CN(Cc2ccc(OC(F)(F)F)cc2)Cc2cc(C(=O)NO)ccc2N1
9,≤ 100,O=C1CN(Cc2ccc(Oc3ccccc3)cc2)Cc2cc(C(=O)NO)ccc2N1
10,100 to 500,CC(C)c1ccc(CN2CC(=O)Nc3ccc(C(=O)NO)cc3C2)nc1
11,100 to 500,O=C1CN(Cc2cccnc2)Cc2cc(C(=O)NO)ccc2N1
12,100 to 500,O=C1CN(Cc2ccncc2)Cc2cc(C(=O)NO)ccc2N1
13,100 to 500,COCCn1c(N2CCOc3ccc(C(=O)NO)cc3C2)nc2ccccc21
14,≤ 100,COCCn1c(N2CCOc3cc(C(=O)NO)ccc3C2)nc2ccccc21
15,≤ 100,O=C1CN(Cc2cn3ccccc3n2)Cc2cc(C(=O)NO)ccc2N1
16,≤ 100,O=C1CN(Cc2cccc3ccccc23)Cc2cc(C(=O)NO)ccc2N1
17,≤ 100,COc1ccc(NC(=O)N2CCOc3cc(C(=O)NO)cnc3C2)cc1
18,≤ 100,COc1ccc(CN2Cc3ccc(C(=O)NO)cc3OC[C@H]2C)cc1
19,≤ 100,C[C@H]1COc2cc(C(=O)NO)ccc2CN1c1ccccc1
20,≤ 100,COc1ccc(CN2Cc3ccc(C(=O)NO)cc3OC[C@@H]2C)cc1
21,≤ 100,COc1ccc(NC(=O)N2Cc3ccc(C(=O)NO)cc3OC[C@@H]2C)cc1
